Biological target: T1, 11β-HSD1 (Homo sapiens, UniProt P28845)
T1 construct: Human liver microsomes were used as a source of 11β-HSD1 enzyme; tissue XenoTech Lot No. 1410013; host or cells: pooled human liver microsomes, mixed gender
Experiment: Inhibition of 11β-HSD1 (cortisone to cortisol, human liver microsomes, cortisol ELISA)
Format: biochemical
Details: 10 µM, 2.5 h, 37 °C
Description: The resulting solution with a final volume of 100 µL was incubated for 2.5 h at 37 °C. To stop the reaction, 10 µL of a 100 µM solution of 18β-glycyrrhetinic acid in PBS was added. The level of cortisol obtained in the reaction was measured by commercially available ELISA kit.
As a control, analogous tests without the addition of inhibitors were used. Half the inhibitory concentration (causing 50% reduction of cortisol or cortisone) was read from the chart.

T1 sequence (P28845 whole entry): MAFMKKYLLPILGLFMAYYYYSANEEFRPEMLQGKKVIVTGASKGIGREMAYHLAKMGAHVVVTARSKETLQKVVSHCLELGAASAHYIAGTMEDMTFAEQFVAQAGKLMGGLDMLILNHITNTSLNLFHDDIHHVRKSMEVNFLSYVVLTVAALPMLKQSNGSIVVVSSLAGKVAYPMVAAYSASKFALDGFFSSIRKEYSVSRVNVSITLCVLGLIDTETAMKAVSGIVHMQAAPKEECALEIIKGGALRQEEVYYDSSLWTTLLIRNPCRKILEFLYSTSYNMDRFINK

inhibition at 10 µM: 90.4 ± 1.86%
SMILES: CC1(C)[C@@H](OC(=O)CCC(=O)O)CC[C@]2(C)[C@H]3C(=O)C=C4[C@@H]5C[C@@](C)(C(=O)O)CC[C@]5(C)CC[C@@]4(C)[C@]3(C)CC[C@@H]12 [carbenoxolone, reference compound]
